# In patent publication US11019823B2, “Method of controlling water surface inhabiting pests” (SHA'KED MICROBIAL SOLUTIONS LTD., priority 2013, dated 2021):
# Key:
# [1] = test system: Non-biting midge eggs (Chironomidae: Tanypodinae); conditions: a week, 30° C., probit analysis
# Description: Non-biting midge eggs (Chironomidae: Tanypodinae) were obtained from the pond at Town Park, Auburn, Ala. The eggs were counted and transferred to spot plates containing 8 ml of NaDCC anhydrous solution at 0, 50, 500, 5000, and 50,000 ppm. Each treatment and control was replicated 3 times within the same spot plate and transferred to an incubator set for 30° C. and 12 hours of light and dark alterations for a week. Data were analyzed by probit analysis with the PROBIT Procedure in SAS (Version 9.2, Cary N.C.). Larvae were only counted as hatched if they were completely free from their egg casing.
# Anopheles stevensi eggs = conditions: 72 hrs, 30° C., probit analysis
# Description: Data were analyzed by probit analysis with the PROBIT Procedure in SAS (Version 9.2, Cary N.C.).
# [2] = test system: Culex quinquefasciatus eggs; test: Mosquito egg bioassay in spot plates, probit analysis; assay type: in vivo
# Description: Mosquito eggs were obtained from the Center for Disease control in Fort Collins, Colo. The eggs were counted and transferred to spot plates containing 8 ml of NaDCC anhydrous solution at 0, 50, 500, 5000, and 50,000 ppm. Each treatment concentration and control (0 ppm) was replicated 3 times within the same spot plate and transferred to an incubator set for 30° C. and 12 hrs of light and dark alterations for 25 hours. […] Larvae were counted as living, hatched dead, or unhatched dead 25 hrs after the bioassay was initiated. Larvae were only counted as hatched if they were completely free from their egg casing. Data were analyzed by probit analysis with the PROBIT Procedure in SAS (Version 9.2, Cary N.C.), producing an LC95 and natural response rate.
# A. aegypti eggs = test: as above; assay type: in vivo, Aedes aegypti
# Description: A. aegypti eggs were obtained from the Center for Disease control in Fort Collins, Colo. The eggs were counted and transferred to spot plate treatment or control wells, and placed in an incubator. Larvae were counted as living, hatched dead, or unhatched dead 72 hours after the bioassay was initiated. […] The LC95 for A. aegypti was 470 ppm.
# [3] = test system: non-motile eggs of the insects; test: Concentrated hypochlorite on insect egg hatching; assay type: in vivo; conditions: 250-500 ppm of concentrated hypochlorite
# Description: In certain aspects the methods of the present invention target the non-motile eggs of the insects. 250-500 ppm of concentrated hypochlorite caused 95% of egg populations not to hatch.
# [4] = test system: cyanobacterium Oscillatoria sp.; conditions: 1.2 g NaDCC per enclosure (Example 6)
# [5] = Dissolution study: release of free available chlorine / NaDCC from floating pellets in deionized water (orthotolidine colorimetry, 436 nm); assay type: physicochemical
# Description: The ability of the pellet to release free available chlorine from the water soluble NaDCC was measured over time using a colorimeric method. Three pellets were selected at random from the kilogram batch that was created. The dimensions and mass of each pellet was recorded and the pellets were added to an 800 ml high density polyethylene (HDPE) beaker filled with deionized water and covered with aluminum foil. NaDCC (0.1975 g) was added to a separate 800 ml plastic beaker as a control. 0.8 ml aliquots of each solution were pipetted into 50 ml volumetic flasks and brought to volume with deionized water. 10 ml aliquots of these diluted solutions were mixed with 100 μl of 0.1% orthotolidine in a vial, forming a clear, yellow solution. The solution was loaded into a cuvette and was analyzed using a Shimadzu UV160U UV-Vis Spectrophotometer at 436 nm.
# Initial sample pulls occurred 15 minutes after the pellets and control sample were added to the water. Additional pulls were taken at about 2, 9, 11, 13, 15, 17, 24, and 36 hours.
# Upon exposure to water, NaDCC breaks down to release free available chlorine that acts as an algae growth inhibitor. Orthotolidine reacts with the chlorine causing a color change allowing for colorimetic analysis to chart the dissolution of the NaDCC. The concentration of NaDCC released at each time point was calculated by constructing a calibration curve relating the free available chlorine response to the initial concentration of NaDCC. The initial concentration of NaDCC calculation is shown in Equation 1. The original aliquot of the control taken at the 15 minute mark was used to create standards ranging from 25-250 ppm. Concentration of initial NaDCC=initial mass of NaDCC/volume of deionized water Equation 1: 197.5 mg/0.800 L=246.9 ppm
# [6] = test system: toxic cyanobacterium Oscillatoria sp.; conditions: 1.6 g NaDCC per enclosure of about 270 liter (Example 5)
compound,measurement,setting,value
"O=c1nc([O-])n(Cl)c(=O)n1Cl.[Na+] [NaDCC anhydrous, Sodium Dichloroisocyanurate (NaDCC) Anhydrous]",LC95,[1],205.7 ppm
same,LC95,Anopheles stevensi eggs,270 ppm
same,state of egg shells,[2]; 5000 ppm treatment,mostly dissolved
same,state of egg shells,"[2]; 50,000 ppm treatment",dissolved and unperceivable
same,LC95,"[2]; 25 hrs, 30° C., probit analysis",93.8 ppm
same,state of egg shells,A. aegypti eggs; 5000 ppm treatment,mostly dissolved
same,state of egg shells,"A. aegypti eggs; 50,000 ppm treatment",dissolved and unperceivable
same,LC95,"A. aegypti eggs; 72 hours, probit analysis",470 ppm
OCl [hypochlorite],egg populations not hatching,[3],95%
"O=c1nc([O-])n(Cl)c(=O)n1Cl.[Na+] [NaDCC, sodium dichloroisocyanurate]",effect on cyanobacterial infestation,[4],total elimination of the cyanobacterial infestation
same,Concentration of NaDCC released,[5]; 0.25 hours,241.5 ppm
same,Response,"[5]; 0.25 hours, 436 nm, orthotolidine, 800 ml deionized water",2.053 AU
same,Concentration of NaDCC released,[5]; 2.17 hours,228.4 ppm
same,Response,[5]; 2.17 hours,1.941 AU
same,Concentration of NaDCC released,[5]; 9.17 hours,237.9 ppm
same,Response,[5]; 9.17 hours,2.022 AU
same,Concentration of NaDCC released,[5]; 11.00 hours,215.4 ppm
same,Response,[5]; 11.00 hours,1.831 AU
same,Concentration of NaDCC released,[5]; 13.42 hours,238.8 ppm
same,Response,[5]; 13.42 hours,2.030 AU
same,Concentration of NaDCC released,[5]; 15.42 hours,233.9 ppm
same,Response,[5]; 15.42 hours,1.988 AU
same,Concentration of NaDCC released,[5]; 17.67 hours,231.5 ppm
same,Response,[5]; 17.67 hours,1.968 AU
same,Concentration of NaDCC released,[5]; 24.00 hours,217.6 ppm
same,Response,[5]; 24.00 hours,1.850 AU
same,Concentration of NaDCC released,[5]; 36.00 hours,237.1 ppm
same,Response,[5]; 36.00 hours,2.015 AU
same,effect on cyanobacterial infestation,[6],total elimination of the cyanobacterial infestation
